Series [1] addresses reactive cysteine sites of other proteins in A549 cells (Homo sapiens, UniProt P40222). The conditions noted are these: 4 h, P40222_C87 Alpha-taxilin. The text has this:
(§1) Further, the samples were digested with tosylsulfonyl phenylalanyl chloromethyl ketone (TPCK)-treated trypsin and endoGluC to increase the coverage of protein sequences, especially the PARK7 peptide containing Cys106 residue. Peptides generated by digestion from replicates of each sample were labeled using TMT16-plex to perform tandem mass tag (TMT)-based quantitative proteomics profiling. Following the TMT labeling, all samples were pooled and the peptides conjugated to the DBIA probe were enriched by streptavidin beads and analyzed by LC-MS/MS (Figure 3A). […] All cysteines were represented with the shortest peptide by using the average CR values of all the peptides with the same modified cysteine from the same protein in the same condition.[16],[27],[28]
(§2) A549 cells were seeded into 10 cm plates in 10 mL of media. […] The cells were then washed two times with cold PBS (1 mL per 10 cm plate) and collected by scraping them with a cell scraper. Cells were lysed by sonication in ice-cold PBS and centrifuged at 15,000 rpm for 2 min to remove cell debris. The BCA Gold protein assay (Thermo Fisher Scientific) was performed to determine protein concentration. Each sample (100 μg) was labeled with 500 μM DBIA probe for 1 h in the dark at room temperature (RT). Excess DBIA and disulfide bonds were quenched and reduced, respectively, using 5 mM dithiothreitol (DTT) for 30 min in the dark at RT. Reduced disulfide bonds were alkylated using 20 mM iodoacetamide for 30 min in the dark at RT. […] Digested peptides were labeled with TMTpro16-plex reagents (Thermo Fisher Scientific) in a 1:4 ratio by mass (peptides/TMT reagents) for 1 h at RT. Excess TMT reagent was quenched with 5 μL 6% hydroxylamine for 15 min at RT. All samples were then pooled and lyophilized.
(§3) Nonspecific binding peptides were washed away using the following procedure: 3 × 1 mL of PBS pH 7.4, 2 × 1 mL of PBS with 0.1% SDS pH 7.4, and 3 × 1 mL of HPLC-grade water. DBIA probe-containing peptides were eluted using 700 μL of 50% acetonitrile in 0.1% TFA, lyophilized using a Speedvac, and desalted using a handmade mini-SPE column (10% sorbent material of a Waters, OASIS 1 cm^3 HLB 30 mg cartridge). Column was equilibrated with 200 μL of 90% acetonitrile and 3 × 200 μL of 10 mM NH4HCO3 pH 8.4. The dried sample was dissolved in 200 μL of 10 mM NH4HCO3 pH 8.4, loaded onto the column, washed 3x with 200 μL of 10 mM NH4HCO3 pH 8.4, and eluted into 3 fractions with 150 μL of 10, 20, and 50% acetonitrile (in 10 mM NH4HCO3). Samples were then lyophilized.
(§4) 2.2.04 (www.matrixscience.com) for protein identification. Mascot searches were done with 10 ppm and 0.02 Da deviation for the precursor and fragment mass, respectively, and the enzymes trypsin and EndoGluC was specified, up to three missed cleavages were allowed. Methionine oxidation, acetyl (protein N-term), and DBIA on Cys were set as a variable modification. Carbamidomethyl on Cys and TMTpro on Lys and N-term were set as a fixed modification. Peptides with an FDR <1% were accepted. Peptides were only retained, if they were quantified and if there was exactly one DBIA modification on the peptide. The values for each TMT channel were normalized to the average of the values for the DMSO samples for the same peptide, and these values were named CR. For each peptide, the first entry of the Master Protein Accessions column was chosen as the Master Protein Accession, and the residue number of the cysteine modified by DBIA within the entire protein sequence was determined. Using this information, each peptide was assigned an identifier consisting of the Master Protein Accession and the residue number of the modified cysteine to assign each peptide to the respective modified cysteine residue. Within each replicate, CR values for all peptides with the same identifier (and thus the same modified cysteine residue) were combined by averaging and only the shortest Annotated Sequence was kept as the final Annotated Sequence.

The target in series [2] is T1, reactive cysteine sites of other proteins in A549 cells (Homo sapiens, UniProt O60664).
T1 sequence (O60664 1-434): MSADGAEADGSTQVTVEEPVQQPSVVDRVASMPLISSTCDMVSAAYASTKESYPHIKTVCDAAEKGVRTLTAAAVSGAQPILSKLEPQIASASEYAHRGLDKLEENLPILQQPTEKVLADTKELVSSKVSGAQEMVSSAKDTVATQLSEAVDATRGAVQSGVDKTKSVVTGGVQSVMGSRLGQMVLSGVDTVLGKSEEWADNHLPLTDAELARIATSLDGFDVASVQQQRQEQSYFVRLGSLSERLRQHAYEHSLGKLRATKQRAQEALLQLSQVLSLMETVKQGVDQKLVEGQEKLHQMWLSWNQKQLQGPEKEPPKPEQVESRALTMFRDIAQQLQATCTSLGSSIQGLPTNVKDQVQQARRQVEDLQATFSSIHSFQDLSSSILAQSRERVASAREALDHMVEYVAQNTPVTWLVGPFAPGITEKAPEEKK
The conditions noted are these: 4 h, O60664_C39 Perilipin-3.
Text: as §1, §2, §3, §4

Series [3] addresses reactive cysteine sites of other proteins in A549 cells (Homo sapiens, UniProt P04080). The conditions noted are these: 4 h, P04080_C3 Cystatin-B.
Text: as §1, §2, §3, §4

The target of series [4] is reactive cysteine sites of other proteins in A549 cells (Homo sapiens, UniProt Q13085). The conditions noted are these: 4 h, Q13085_C1297 Acetyl-CoA carboxylase 1.
Text: as §1, §2, §3, §4

Series [5] concerns A549 cells. In words: Cell viability assay (CellTiter-Blue). The class given is cell-based, human. The conditions noted are these: up to 5 μM, 72 h incubation. The method, then: 5 × 10^3 A549 cells were seeded into 96-well plates. The following day, the indicated final concentrations of JYQ-164 and JYQ-173 were added to the cells, and DMSO was used as a control. Inhibitors were renewed at 36 h, and cells were incubated with them an additional 36 h. Cell viability was measured using the CellTiter-Blue viability assay (Promega). Relative survival was normalized to the DMSO-treated sample and corrected for background signal. page 8: Figure S6. Cytotoxicity assay for JYQ-164 and JYQ-173 in A549 cells. ( A) PARK7 engagement of JYQ -164 and JYQ-173 in A459 cells. A549 cells were incubated with […] The reactions were stopped by addition of NuPAGE™ LDS sample buffer (4x) , followed by cell lysis, SDS-PAGE, fluorescence scanning, and immunoblott in g against PARK7 and β-actin. β-actin was used as a loading control. (B) A549 cells were incubated with indicated concentration of JYQ-164 (left panel) or JYQ-173 (right panel) for 72 h where the inhibitors were renewed after 36 h. Cell viability was measured using the CellTiter-Blue assay. Relative viability was normalized to untreated control and corrected for background signal. S8 (1 picture or pasted object on this page, not shown here)

Where two headings read alike, the source gives them in different places.

reactive cysteine sites of other proteins in A549 cells (Homo sapiens, UniProt P40222), sequence (P40222 whole entry): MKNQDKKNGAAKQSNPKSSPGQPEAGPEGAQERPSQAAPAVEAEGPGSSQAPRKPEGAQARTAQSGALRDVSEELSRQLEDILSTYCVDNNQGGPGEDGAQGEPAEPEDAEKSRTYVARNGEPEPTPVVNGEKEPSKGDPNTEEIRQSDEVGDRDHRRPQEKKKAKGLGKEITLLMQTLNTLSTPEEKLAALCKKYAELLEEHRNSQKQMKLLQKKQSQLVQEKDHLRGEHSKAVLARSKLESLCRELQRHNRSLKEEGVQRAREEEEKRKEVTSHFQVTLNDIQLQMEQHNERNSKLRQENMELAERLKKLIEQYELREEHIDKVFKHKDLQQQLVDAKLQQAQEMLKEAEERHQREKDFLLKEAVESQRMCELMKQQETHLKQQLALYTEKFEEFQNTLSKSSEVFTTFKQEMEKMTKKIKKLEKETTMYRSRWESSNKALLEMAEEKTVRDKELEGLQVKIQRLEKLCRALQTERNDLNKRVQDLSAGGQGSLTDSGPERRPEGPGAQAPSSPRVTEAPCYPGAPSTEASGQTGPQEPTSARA
reactive cysteine sites of other proteins in A549 cells (Homo sapiens, UniProt P04080), sequence (P04080 whole entry): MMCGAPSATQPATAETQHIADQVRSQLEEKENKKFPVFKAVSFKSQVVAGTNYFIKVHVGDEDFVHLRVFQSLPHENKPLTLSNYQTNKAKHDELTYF

For `N#CN1CC[C@@H](C(=O)Nc2nc3c(s2)CN(C(=O)c2cc(-n4ccnn4)ccc2F)CC3)C1` [Compound 84, (R)-1-Cyano-N-(5-(2-fluoro-5-(1H-1,2,3-triazol-1-yl)benzoyl)-4,5,6,7-tetrahydrothiazolo[5,4-c]pyridin-2-yl)pyrrolidine-3-carboxamide], the “Average log2 CR (DMSO/inhibitor)” value was 0.7392 in series [1] (A549, 0.5 µM); 1.414 in series [1] (A549, 5 µM); 0.4419 in series [2] (A549, 0.5 µM); 1.439 in series [2] (A549, 5 µM); 0.9051 in series [3] (A549, 0.5 µM); 1.676 in series [3] (A549, 5 µM). Moreover, the “Average log2 CR (DMSO/inhibitor)” value in series [4] (A549, 0.5 µM) is given as 0.6874; in series [4] (A549, 5 µM) it was 1.886. The cytotoxicity entry in series [5] is “did not show any cytotoxicity”.
